From US20210332024A1, “MODULATORS OF PIN1 ACTIVITY AND USES THEREOF” (Yeda Research and Development Co. Ltd., priority 2019, published 2021)
Where “and” joins values, the source holds several entries; their conditions need not be identical. Equal values may be shown once. Read-outs that look alike come from different tables or passages of the source.

How the values were obtained:
[1] = test system: 300 suspension and hematopoietic human cancer cell lines; experiment: PRISM anti-proliferative profiling; assay type: cell-based; details: 120 h, all 300 cancer cell lines, 5-day treatment
From the text: In order to profile the anti-proliferative activity of Pin1-3, the compound was submitted to the PRISM platform (Broad Institute) to evaluate its potency against 300 suspension and hematopoietic human cancer cell lines. The PRISM method enables high-throughput, pooled screening of mixtures of cell lines, which are each labeled with a 24-nucleotide barcode [Yu et al., Nat Biotechnol 2016, 34:419-423].

[2] = test system: PC3 prostate cancer cells; experiment: Prolonged-treatment cell growth, PC3; assay type: cell-based; details: PC3, 1 or 2.5 μM
Protocol: The ability of Pin1-3 treatment to induce more pronounced anti-proliferative effects after prolonged treatment (6-8 days) was then assessed. In order to ensure that target engagement was maintained for the duration of the experiment, Pin1-3 was replenished in fresh media every 48 hours.

[3] = Thiol reactivity assay (DTNB); assay type: physicochemical; details: 200 μM compound, pH 7.4, 37° C.
Protocol: 50 μM DTNB (dithionitrobenzoic acid) was incubated with 200 μM TCEP (tris(2-carboxytehyl)phosphine) in 20 mM sodium phosphate buffer (pH 7.4) with 150 mM NaCl, for 5 minutes at room temperature, in order to obtain TNB^2− (thionitrobenzoate dianion). 200 μM compounds were subsequently added to the TNB^2−, followed by immediate UV absorbance measurement at 412 nm (at 37° C.). The UV absorbance was acquired every 15 minutes for 7 hours. The assay was performed in a 384-well plate using a Spark™ 10M plate reader (Tecan). Background absorbance of compounds was subtracted by measuring the absorbance at 412 nm of each compound under the same conditions without DTNB. Compounds were measured in triplicates. The data was fitted to a second order reaction equation such that the rate constant k is the slope of ln([A][B0]/[B][A0]), where [A0] and [B0] are the initial concentrations of the compound (200 μM) and TNB^2− (100 μM) respectively, and [A] and [B] are the remaining concentrations as a function of time, as determined from the spectrometric measurement. Linear regression using Prism® software was performed to fit the rate against the first four hours of measurements.
In order to estimate the influence of the various lipophilic moieties on “warhead” reactivity [Flanagan et al., J Med Chem 2014, 57:10072-10079; Lonsdale et al., J Chem Inf Model 2017, 57:3124-3137; Dahal et al., Medchemcomm 2016, 7:864-872], the thiol reactivity of the top ten binders of the second and third generation was assessed using a high-throughput assay previously applied to the entire fragment library, as described in Resnick et al. [J Am Chem Soc 2019, 141:8951-8968]. In brief, the second-order rate constant was evaluated for a model thiol, which reflects trends in general reactivity towards thiol groups.

[4] = Pharmacokinetics, intravenous administration; assay type: in vivo, Male C57Bl/6J mice
Protocol: Male C57Bl/6J mice received Pin1-3 intravenously (as a 0.2 mg/ml solution in 5/5/90 NMP/Solutol/saline) or orally (as a 1 mg/ml solution in 5/5/90 NMP/Solutol/saline). The intravenous dosage was 2 mg/kg and the oral dosage was 10 mg/kg.

[5] = test system: MYCN-overexpressing PSNS neuroblasts; experiment: Zebrafish embryo model of MYCN-driven neuroblastoma; assay type: in vivo
From the text: Zebrafish were used for a model of childhood neuroblastoma, in which the tissue-specific overexpression of the human MYCN transgene using the dopamine β hydroxylase (dβh) promoter in the zebrafish peripheral sympathetic nerve system (PSNS) drives neuroblastoma tumorigenesis in zebrafish [Zhu et al., Cancer Cell 2012, 21:362-373]. The fish are also transgenic for a PSNS-specific dβh:EGFP reporter line, so that the tumors can be visualized by EGFP. In this model, hyperproliferation of sympathetic neuroblasts is evident in the […] (counterpart of the adrenal medulla) starting at 4 days post-fertilization (dpf).
Zebrafish embryos at 3 dpf were treated with different concentrations of the test compound in the egg water (reverse osmosis or RO water with 0.6 gm/liter instant ocean salts) for 4 days. The embryos were transferred to egg water containing freshly diluted drug after 2 days (5 dpf). The embryos were then imaged at 7 dpf, and the relative EGFP+MYCN-overexpressing neuroblast cross-sectional area for each experimental group was quantified.
The effect of Pin1-binding […] on neuroblastoma cells was assessed using a zebrafish embryo model of neuroblastoma, using procedures described in the Materials and Methods section hereinabove. Neuroblastoma is a pediatric malignancy derived from the peripheral sympathetic nervous system (PSNS). […] Overexpression of the MYCN oncogene, which is the oncogenic driver in approximately 20% of human high-risk neuroblastomas, in the PSNS of Tg(dβh:MYCN;dβh:EGFP) transgenic zebrafish, causes the fish to develop neuroblast hyperplasia (as shown, for example, in FIG. 42), which rapidly progress into fully transformed tumors that faithfully resemble human high-risk neuroblastoma [Zhu et al., Cancer Cell 2012, 21:362-373; He et al., Elife 2016, 5; Zimmerman et al., Cancer Discov 2016, 8:320-335].

[6] = intravenous 2 mg/kg, individual mice No. 1-3, 2 mg/kg
[7] = male, C57Bl/6J, mouse, in vivo, iv, 2 mg/kg, Avg. of 3 mice
[8] = male, C57Bl/6J, mouse, in vivo, iv, 2 mg/kg, individual mice No. 1-3

CC(C)(C)CN(C(=O)CCl)C1CCS(=O)(=O)C1 (centres unmarked) [Pin1-3, 2-chloro-N-(sulfolan-3-yl)-N-neopentylacetamide]
IC50 [1]: > 3000 nM
Cell growth [2]: long-term inhibition
Reactivity Log k [3]: −7.43
Reactivity k [3]: 3.73e-08 M⁻¹ s⁻¹
AUC % extrap. ([4]; intravenous 2 mg/kg, Avg. of 3 mice): 0.23%
AUC % extrap. [4, 6]: 0.36% and 0.17% and 0.18%
AUCINF obs. [4, 6]: 294012 ng·min/mL and 365536 ng·min/mL
AUClast [4, 6]: 293517 min*ng/ml and 17.4 hr*μM and 364891 min*ng/ml and 21.6 hr*μM
Cl obs. [4, 6]: 6.80 mL/min/kg and 5.47 mL/min/kg
Cmax [4, 6]: 1620 ng/mL and 2030 ng/mL
MRTINF obs. [4, 6]: 113 min and 109 min
T1/2 [4, 6]: 40.8 min and 43.2 min
VSS obs. [4, 6]: 0.77 L/kg and 0.60 L/kg
Cmax ([4]; intravenous 2 mg/kg, individual mice No. 1-3, 2 mg/kg, read-out: Cmax): 5.76 µM and 7.22 µM
AUC(0-t) [4, 7]: 6050 ng·h/mL and 21.5 µM·h
half-life [4, 7]: 45.6 min
AUC(0-inf) ([4]; male, C57Bl/6J, mouse, in vivo, iv, 2 mg/kg, Avg. of 3 mice, read-out: AUCINF obs. (converted)): 6070 ng·h/mL
clearance ([4]; male, C57Bl/6J, mouse, in vivo, iv, 2 mg/kg, Avg. of 3 mice, read-out: Cl obs.): 5.63 mL/min/kg
Cmax ([4]; male, C57Bl/6J, mouse, in vivo, iv, 2 mg/kg, Avg. of 3 mice, read-out: Cmax): 2090 ng/mL and 7.42 µM
MRT inf ([4]; male, C57Bl/6J, mouse, in vivo, iv, 2 mg/kg, Avg. of 3 mice, read-out: MRTINF obs.): 108 min
Vd ([4]; male, C57Bl/6J, mouse, in vivo, iv, 2 mg/kg, Avg. of 3 mice, read-out: VSS obs.): 0.61 L/kg
AUC(0-t) [4, 8]: 7190 ng·h/mL and 25.6 µM·h
half-life [4, 8]: 53.4 min
AUC(0-inf) ([4]; male, C57Bl/6J, mouse, in vivo, iv, 2 mg/kg, individual mice No. 1-3, read-out: AUCINF obs. (converted)): 7210 ng·h/mL
clearance ([4]; male, C57Bl/6J, mouse, in vivo, iv, 2 mg/kg, individual mice No. 1-3, read-out: Cl obs.): 4.62 mL/min/kg
Cmax ([4]; male, C57Bl/6J, mouse, in vivo, iv, 2 mg/kg, individual mice No. 1-3, read-out: Cmax): 2610 ng/mL and 9.28 µM
MRT inf ([4]; male, C57Bl/6J, mouse, in vivo, iv, 2 mg/kg, individual mice No. 1-3, read-out: MRTINF obs.): 102 min
Vd ([4]; male, C57Bl/6J, mouse, in vivo, iv, 2 mg/kg, individual mice No. 1-3, read-out: VSS obs.): 0.47 L/kg
Tmax ([4]; male, C57Bl/6J, mouse, in vivo, intravenous 2 mg/kg, individual mice No. 1-3): 30 min
Cross-section of the EGFP-expressing PSNS cells ([5]; 100 μM for 4 days): indistinguishable from that of controls without hyperproliferation
Toxicity in embryos ([5]; 25 to 100 μM in the egg water): no evidence of toxicity
Hyperproliferation of MYCN-overexpressing PSNS neuroblasts ([5]; 25 to 100 μM in the egg water, 3 to 7 dpf): suppressed the hyperproliferation of MYCN-overexpressing PSNS neuroblasts
